Source: the kinase profiling compilation of Christmann-Franck et al. (2016)

Assays:
Test in all cases: radiometric filter-binding kinase assay
DYRK3 (human) = DYRK3 (human) (UniProt O43781)
RPS6KA3 KD1 KD2 (human) = RPS6KA3 KD1 KD2 (human) (UniProt P51812)
MINK1 (human) = MINK1 (human) (UniProt Q8N4C8)
CHEK2 (human) = CHEK2 (human) (UniProt O96017)
EPHB1 (human) = EPHB1 (human) (UniProt P54762)
MARK2 (human) = MARK2 (human) (UniProt Q7KZI7)
[1] = system: PAK2 (human), Q13177 [T402E]
MST4 (human) = MST4 (human) (UniProt Q9P289)
ROCK2 (rat) = conditions: accession and sequence are those of the human protein
MAP3K11 (human) = MAP3K11 (human) (UniProt Q16584)
GCK (human) = GCK (human) (UniProt Q12851)
TBK1 (human) = TBK1 (human) (UniProt Q9UHD2)
TAOK1 (human) = TAOK1 (human) (UniProt Q7L7X3)
TAOK1 (human), sequence (Q7L7X3 whole entry, looked up): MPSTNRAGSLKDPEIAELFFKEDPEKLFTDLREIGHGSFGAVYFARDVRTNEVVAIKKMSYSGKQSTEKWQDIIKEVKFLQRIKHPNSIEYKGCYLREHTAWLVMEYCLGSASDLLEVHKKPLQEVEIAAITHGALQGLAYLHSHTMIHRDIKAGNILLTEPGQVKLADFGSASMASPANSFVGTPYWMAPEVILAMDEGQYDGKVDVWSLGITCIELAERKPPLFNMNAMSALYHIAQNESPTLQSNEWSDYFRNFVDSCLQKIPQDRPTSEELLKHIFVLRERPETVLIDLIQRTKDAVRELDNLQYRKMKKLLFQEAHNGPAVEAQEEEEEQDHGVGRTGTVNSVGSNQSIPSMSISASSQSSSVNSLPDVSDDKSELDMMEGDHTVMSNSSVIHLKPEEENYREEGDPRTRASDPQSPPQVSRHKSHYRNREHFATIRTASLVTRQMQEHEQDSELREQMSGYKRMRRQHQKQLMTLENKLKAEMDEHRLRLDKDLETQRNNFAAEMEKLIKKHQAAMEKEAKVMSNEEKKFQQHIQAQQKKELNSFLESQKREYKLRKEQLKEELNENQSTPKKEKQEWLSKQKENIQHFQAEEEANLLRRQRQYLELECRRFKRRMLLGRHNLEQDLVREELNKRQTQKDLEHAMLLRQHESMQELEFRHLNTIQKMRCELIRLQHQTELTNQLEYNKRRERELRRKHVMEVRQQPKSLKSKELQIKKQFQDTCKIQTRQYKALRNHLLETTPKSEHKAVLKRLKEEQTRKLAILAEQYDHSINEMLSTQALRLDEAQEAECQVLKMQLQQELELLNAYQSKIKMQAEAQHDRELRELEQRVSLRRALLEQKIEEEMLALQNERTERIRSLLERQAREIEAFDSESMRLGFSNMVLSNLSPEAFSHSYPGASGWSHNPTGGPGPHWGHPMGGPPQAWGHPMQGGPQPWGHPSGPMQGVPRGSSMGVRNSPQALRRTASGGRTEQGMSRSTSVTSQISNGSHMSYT

PAK6 (human) = PAK6 (human) (UniProt Q9NQU5)
EPHA2 (human) = EPHA2 (human) (UniProt P29317)
EPHB3 (human) = EPHB3 (human) (UniProt P54753)
MAP3K7 TAB1 (human) = MAP3K7 TAB1 (human) (UniProt Q15750+O43318)
IKBKB (human) = IKBKB (human) (UniProt O14920)
AURKB (human) = AURKB (human) (UniProt Q96GD4)
TTK (human) = TTK (human) (UniProt P33981)
CDK2 CCNA2 (human) = CDK2 CCNA2 (human) (UniProt P20248+P24941)
LCK (mouse) = conditions: accession and sequence are those of the human protein
MAPK8 (human) = MAPK8 (human) (UniProt P45983)
MAPK8 (human), sequence (P45983 whole entry, looked up): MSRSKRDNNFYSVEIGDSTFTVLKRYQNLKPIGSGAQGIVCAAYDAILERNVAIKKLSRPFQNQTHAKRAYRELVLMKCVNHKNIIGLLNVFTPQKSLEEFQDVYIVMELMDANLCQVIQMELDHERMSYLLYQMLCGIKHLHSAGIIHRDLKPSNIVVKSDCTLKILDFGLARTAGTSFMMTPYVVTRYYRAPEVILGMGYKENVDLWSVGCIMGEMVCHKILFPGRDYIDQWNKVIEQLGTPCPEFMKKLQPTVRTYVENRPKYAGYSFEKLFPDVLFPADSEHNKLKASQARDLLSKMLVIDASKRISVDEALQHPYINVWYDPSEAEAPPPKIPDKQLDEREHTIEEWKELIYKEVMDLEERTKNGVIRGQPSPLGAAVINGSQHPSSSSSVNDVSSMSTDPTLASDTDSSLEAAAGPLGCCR

[2] = system: AKT1 (human), P31749 [S473D]
EPHB2 (human) = EPHB2 (human) (UniProt P29323)
EPHB2 (human), sequence (P29323 whole entry, looked up): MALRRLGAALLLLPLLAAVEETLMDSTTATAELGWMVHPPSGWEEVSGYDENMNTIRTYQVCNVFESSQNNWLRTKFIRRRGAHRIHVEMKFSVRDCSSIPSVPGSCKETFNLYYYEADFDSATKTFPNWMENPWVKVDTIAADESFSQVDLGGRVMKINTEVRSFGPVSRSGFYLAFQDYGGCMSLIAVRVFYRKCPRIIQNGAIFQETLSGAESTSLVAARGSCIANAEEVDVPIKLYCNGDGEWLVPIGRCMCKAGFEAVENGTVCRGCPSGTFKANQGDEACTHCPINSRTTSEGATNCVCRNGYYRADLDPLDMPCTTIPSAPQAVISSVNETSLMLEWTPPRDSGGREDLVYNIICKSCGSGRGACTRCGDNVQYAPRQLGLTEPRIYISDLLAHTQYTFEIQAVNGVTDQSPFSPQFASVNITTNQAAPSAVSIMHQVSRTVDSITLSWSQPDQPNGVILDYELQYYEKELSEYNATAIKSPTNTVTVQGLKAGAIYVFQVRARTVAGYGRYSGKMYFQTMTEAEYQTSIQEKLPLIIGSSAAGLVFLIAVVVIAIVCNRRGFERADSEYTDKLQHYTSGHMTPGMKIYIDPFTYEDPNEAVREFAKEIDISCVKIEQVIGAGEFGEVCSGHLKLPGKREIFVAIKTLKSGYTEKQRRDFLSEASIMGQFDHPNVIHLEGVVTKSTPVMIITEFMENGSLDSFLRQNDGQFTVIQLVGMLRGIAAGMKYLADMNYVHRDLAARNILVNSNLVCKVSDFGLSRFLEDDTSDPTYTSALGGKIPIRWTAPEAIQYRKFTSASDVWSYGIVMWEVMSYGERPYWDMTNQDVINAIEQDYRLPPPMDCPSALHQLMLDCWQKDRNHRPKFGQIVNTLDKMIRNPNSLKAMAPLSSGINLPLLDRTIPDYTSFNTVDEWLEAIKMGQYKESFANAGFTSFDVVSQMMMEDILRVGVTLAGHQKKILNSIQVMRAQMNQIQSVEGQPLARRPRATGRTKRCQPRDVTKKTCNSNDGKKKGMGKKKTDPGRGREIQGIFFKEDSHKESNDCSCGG

MAP2K1 (human) = MAP2K1 (human) (UniProt Q02750)
PKN2 (human) = PKN2 (human) (UniProt Q16513)
MAPK10 (human) = MAPK10 (human) (UniProt P53779)
EPHA4 (human) = EPHA4 (human) (UniProt P54764)
EPHA4 (human), sequence (P54764 whole entry, looked up): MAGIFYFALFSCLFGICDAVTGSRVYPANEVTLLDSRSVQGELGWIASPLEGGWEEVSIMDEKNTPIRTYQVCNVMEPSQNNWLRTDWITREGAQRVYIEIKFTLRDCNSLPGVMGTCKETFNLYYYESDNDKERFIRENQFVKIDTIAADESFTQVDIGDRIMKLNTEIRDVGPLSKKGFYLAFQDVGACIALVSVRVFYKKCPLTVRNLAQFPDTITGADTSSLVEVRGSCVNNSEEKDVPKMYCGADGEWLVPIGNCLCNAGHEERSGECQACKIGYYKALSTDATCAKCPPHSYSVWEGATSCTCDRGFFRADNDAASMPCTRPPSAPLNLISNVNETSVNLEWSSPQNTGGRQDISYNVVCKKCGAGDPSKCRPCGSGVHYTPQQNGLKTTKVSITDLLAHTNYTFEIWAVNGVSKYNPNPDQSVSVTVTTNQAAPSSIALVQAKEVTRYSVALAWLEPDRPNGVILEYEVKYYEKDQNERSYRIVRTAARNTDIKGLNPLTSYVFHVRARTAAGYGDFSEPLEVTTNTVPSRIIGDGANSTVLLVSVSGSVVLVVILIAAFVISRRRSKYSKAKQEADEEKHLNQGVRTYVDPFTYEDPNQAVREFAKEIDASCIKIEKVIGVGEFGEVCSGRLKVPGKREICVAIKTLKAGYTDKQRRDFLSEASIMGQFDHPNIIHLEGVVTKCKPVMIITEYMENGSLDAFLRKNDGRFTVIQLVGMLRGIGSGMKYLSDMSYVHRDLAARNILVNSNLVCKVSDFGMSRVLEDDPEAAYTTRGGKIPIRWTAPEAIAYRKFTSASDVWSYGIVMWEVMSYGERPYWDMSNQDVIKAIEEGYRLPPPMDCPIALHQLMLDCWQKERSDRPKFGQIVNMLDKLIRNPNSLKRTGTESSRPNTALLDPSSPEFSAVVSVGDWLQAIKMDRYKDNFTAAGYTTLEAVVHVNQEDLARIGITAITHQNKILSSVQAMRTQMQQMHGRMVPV

CSK (human) = CSK (human) (UniProt P41240)
CaMK1 (human) = CaMK1 (human) (UniProt Q14012); conditions: compound 1.0 µM
CHEK1 (human) = CHEK1 (human) (UniProt O14757)
CHEK1 (human), sequence (O14757 whole entry, looked up): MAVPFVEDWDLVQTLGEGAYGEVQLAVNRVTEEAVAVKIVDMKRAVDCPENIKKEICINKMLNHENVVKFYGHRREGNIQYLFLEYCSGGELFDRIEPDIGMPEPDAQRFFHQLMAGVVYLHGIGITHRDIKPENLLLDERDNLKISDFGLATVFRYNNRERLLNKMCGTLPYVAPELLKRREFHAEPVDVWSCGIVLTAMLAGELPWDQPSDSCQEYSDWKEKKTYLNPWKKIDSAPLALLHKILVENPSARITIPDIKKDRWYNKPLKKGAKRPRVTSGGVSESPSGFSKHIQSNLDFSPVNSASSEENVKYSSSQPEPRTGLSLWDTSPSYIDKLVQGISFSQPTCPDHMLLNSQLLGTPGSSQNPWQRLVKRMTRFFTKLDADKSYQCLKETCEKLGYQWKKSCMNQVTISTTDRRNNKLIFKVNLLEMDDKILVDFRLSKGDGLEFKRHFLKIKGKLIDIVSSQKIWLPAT

NUAK1 (human) = NUAK1 (human) (UniProt O60285)
MYLK (human) = MYLK (human) (UniProt Q15746)
SRC (human) = SRC (human) (UniProt P12931)
PAK4 (human) = PAK4 (human) (UniProt O96013); conditions: compound 1.0 µM

PAK2 (human), Q13177 [T402E], sequence (Q13177 whole entry T402E, looked up): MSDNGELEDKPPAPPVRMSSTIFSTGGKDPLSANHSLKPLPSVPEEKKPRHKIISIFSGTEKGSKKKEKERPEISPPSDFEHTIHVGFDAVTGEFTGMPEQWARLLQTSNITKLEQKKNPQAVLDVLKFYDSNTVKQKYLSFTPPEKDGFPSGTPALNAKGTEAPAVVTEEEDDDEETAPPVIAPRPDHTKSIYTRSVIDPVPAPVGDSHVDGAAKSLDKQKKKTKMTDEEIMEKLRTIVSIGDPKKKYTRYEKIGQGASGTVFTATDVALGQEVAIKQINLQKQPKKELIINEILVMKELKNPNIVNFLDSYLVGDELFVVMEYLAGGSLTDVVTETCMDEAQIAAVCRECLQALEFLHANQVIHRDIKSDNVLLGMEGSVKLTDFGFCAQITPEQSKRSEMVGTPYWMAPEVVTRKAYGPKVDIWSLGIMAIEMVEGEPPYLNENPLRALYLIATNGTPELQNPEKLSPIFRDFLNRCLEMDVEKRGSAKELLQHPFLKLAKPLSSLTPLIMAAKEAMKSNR
DYRK3 (human), sequence (O43781 whole entry, looked up): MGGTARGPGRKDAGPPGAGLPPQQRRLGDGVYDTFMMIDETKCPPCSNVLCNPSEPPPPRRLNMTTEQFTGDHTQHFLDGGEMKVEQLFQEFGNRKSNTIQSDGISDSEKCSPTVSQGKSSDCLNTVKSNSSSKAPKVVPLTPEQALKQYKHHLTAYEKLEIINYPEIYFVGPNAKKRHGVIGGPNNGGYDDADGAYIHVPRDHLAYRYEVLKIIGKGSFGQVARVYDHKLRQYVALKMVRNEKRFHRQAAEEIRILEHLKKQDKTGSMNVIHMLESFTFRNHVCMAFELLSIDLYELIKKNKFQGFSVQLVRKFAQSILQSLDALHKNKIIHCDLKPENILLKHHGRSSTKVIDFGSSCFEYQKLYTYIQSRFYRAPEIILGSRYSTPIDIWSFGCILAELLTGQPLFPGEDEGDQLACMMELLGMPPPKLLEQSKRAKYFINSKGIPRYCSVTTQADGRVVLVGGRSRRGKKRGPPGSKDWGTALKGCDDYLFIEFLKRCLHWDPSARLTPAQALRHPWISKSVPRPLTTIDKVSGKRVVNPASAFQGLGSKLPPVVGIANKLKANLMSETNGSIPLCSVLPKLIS

residual activity (DYRK3 (human); compound 1.0 µM): 57%
residual activity (DYRK3 (human); compound 10.0 µM): 64%
residual activity (RPS6KA3 KD1 KD2 (human); compound 1.0 µM): 89%
residual activity (RPS6KA3 KD1 KD2 (human); compound 10.0 µM): 100%
residual activity (MINK1 (human); compound 1.0 µM): 72%
residual activity (MINK1 (human); compound 10.0 µM): 55%
residual activity (CHEK2 (human); compound 1.0 µM): 95%
residual activity (CHEK2 (human); compound 10.0 µM): 94%
residual activity (EPHB1 (human); compound 1.0 µM): 93%
residual activity (EPHB1 (human); compound 10.0 µM): 119%
residual activity (MARK2 (human); compound 1.0 µM): 101%
residual activity (MARK2 (human); compound 10.0 µM): 95%
residual activity ([1]; compound 1.0 µM): 95%
residual activity ([1]; compound 10.0 µM): 107%
residual activity (MST4 (human); compound 1.0 µM): 93%
residual activity (MST4 (human); compound 10.0 µM): 83%
residual activity (ROCK2 (rat); compound 1.0 µM): 120%
residual activity (ROCK2 (rat); compound 10.0 µM): 104%
residual activity (MAP3K11 (human); compound 1.0 µM): 81%
residual activity (MAP3K11 (human); compound 10.0 µM): 83%
residual activity (GCK (human); compound 1.0 µM): 22%
residual activity (GCK (human); compound 10.0 µM): 11%
residual activity (TBK1 (human); compound 1.0 µM): 83%
residual activity (TBK1 (human); compound 10.0 µM): 96%
residual activity (TAOK1 (human); compound 1.0 µM): 91%
residual activity (TAOK1 (human); compound 10.0 µM): 94%
residual activity (PAK6 (human); compound 1.0 µM): 98%
residual activity (PAK6 (human); compound 10.0 µM): 110%
residual activity (EPHA2 (human); compound 1.0 µM): 69%
residual activity (EPHA2 (human); compound 10.0 µM): 81%
residual activity (EPHB3 (human); compound 1.0 µM): 116%
residual activity (EPHB3 (human); compound 10.0 µM): 103%
residual activity (MAP3K7 TAB1 (human); compound 1.0 µM): 64%
residual activity (MAP3K7 TAB1 (human); compound 10.0 µM): 78%
residual activity (IKBKB (human); compound 1.0 µM): 86%
residual activity (IKBKB (human); compound 10.0 µM): 87%
residual activity (AURKB (human); compound 1.0 µM): 93%
residual activity (AURKB (human); compound 10.0 µM): 82%
residual activity (TTK (human); compound 1.0 µM): 91%
residual activity (TTK (human); compound 10.0 µM): 86%
residual activity (CDK2 CCNA2 (human); compound 1.0 µM): 90%
residual activity (CDK2 CCNA2 (human); compound 10.0 µM): 85%
residual activity (LCK (mouse); compound 1.0 µM): 78%
residual activity (LCK (mouse); compound 10.0 µM): 98%
residual activity (MAPK8 (human); compound 1.0 µM): 106%
residual activity (MAPK8 (human); compound 10.0 µM): 109%
residual activity ([2]; compound 1.0 µM): 102%
residual activity ([2]; compound 10.0 µM): 117%
residual activity (EPHB2 (human); compound 1.0 µM): 93%
residual activity (EPHB2 (human); compound 10.0 µM): 95%
residual activity (MAP2K1 (human); compound 1.0 µM): 78%
residual activity (MAP2K1 (human); compound 10.0 µM): 96%
residual activity (PKN2 (human); compound 1.0 µM): 90%
residual activity (PKN2 (human); compound 10.0 µM): 84%
residual activity (MAPK10 (human); compound 1.0 µM): 87%
residual activity (MAPK10 (human); compound 10.0 µM): 77%
residual activity (EPHA4 (human); compound 1.0 µM): 89%
residual activity (EPHA4 (human); compound 10.0 µM): 89%
residual activity (CSK (human); compound 1.0 µM): 75%
residual activity (CSK (human); compound 10.0 µM): 89%
residual activity (CaMK1 (human)): 73%
residual activity (CHEK1 (human); compound 1.0 µM): 81%
residual activity (CHEK1 (human); compound 10.0 µM): 100%
residual activity (NUAK1 (human); compound 1.0 µM): 32%
residual activity (NUAK1 (human); compound 10.0 µM): 16%
residual activity (MYLK (human); compound 1.0 µM): 87%
residual activity (MYLK (human); compound 10.0 µM): 100%
residual activity (SRC (human); compound 1.0 µM): 83%
residual activity (SRC (human); compound 10.0 µM): 130%
residual activity (PAK4 (human)): 94%
Structure (SMILES): CC(C)(C#N)c1ccc(N2C(=O)OCc3cnc4ccc(-c5cnc6ccccc6c5)cc4c32)cc1
